Laboratory results reported in patent publication US20110118262A1, “Pyrrolidinyl and Piperidinyl Compounds Useful as NHE-1 Inhibitiors” (BOEHRINGER INGELHEIM INTERNATIONAL GMBH, priority 2008, published 2011).

Molecular target: T1, NHE-1 (Homo sapiens, UniProt P19634)
T1 construct: endogenous in cells; host or cells: HT-29
Assay: Evaluation of NHE-1 Inhibition (pHi) in HT-29 cells
Format: cell-based
Conditions: BCECF dye, 50% inhibition of the intracellular pH recovery, read-out: NHE1 HT29 pHi IC50
Summary of the method: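 Intracellular pH measured with BCECF in HT-29 cells after 24 h culture. Cells dye-loaded 30 min at 37° C, then acid-loaded with NH4Cl-containing choline buffer (pH 7.5) for 30 min at RT. Compounds added on an FDSS6000 fluorescence reader.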

T1 sequence (P19634 whole entry): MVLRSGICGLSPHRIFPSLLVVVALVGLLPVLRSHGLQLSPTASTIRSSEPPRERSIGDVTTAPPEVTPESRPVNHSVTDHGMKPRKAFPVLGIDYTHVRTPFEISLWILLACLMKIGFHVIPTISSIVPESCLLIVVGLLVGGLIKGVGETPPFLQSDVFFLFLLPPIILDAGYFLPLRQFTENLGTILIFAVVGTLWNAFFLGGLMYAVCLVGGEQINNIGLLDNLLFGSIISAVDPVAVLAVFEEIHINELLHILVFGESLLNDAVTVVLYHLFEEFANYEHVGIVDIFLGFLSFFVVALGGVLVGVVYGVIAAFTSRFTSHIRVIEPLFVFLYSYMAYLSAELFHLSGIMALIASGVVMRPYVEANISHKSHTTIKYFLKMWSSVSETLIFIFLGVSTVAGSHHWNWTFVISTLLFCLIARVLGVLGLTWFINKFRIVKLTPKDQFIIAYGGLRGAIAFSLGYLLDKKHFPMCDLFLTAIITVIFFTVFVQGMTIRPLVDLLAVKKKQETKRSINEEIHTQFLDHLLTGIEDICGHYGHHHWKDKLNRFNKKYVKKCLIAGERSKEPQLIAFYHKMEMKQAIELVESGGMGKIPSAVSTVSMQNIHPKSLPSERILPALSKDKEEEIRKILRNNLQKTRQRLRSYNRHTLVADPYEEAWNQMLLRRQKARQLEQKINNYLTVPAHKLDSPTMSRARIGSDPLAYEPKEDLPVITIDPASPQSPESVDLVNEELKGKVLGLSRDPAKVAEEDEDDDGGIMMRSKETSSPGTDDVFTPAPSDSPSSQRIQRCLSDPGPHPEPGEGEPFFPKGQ

## N=C(N)NC(=O)c1ccc(C2CCN(C(=O)c3ccncn3)CC2)c(C(F)(F)F)c1 [N-{4-[1-(Pyrimidine-4-carbonyl)-piperidin-4-yl]-3-trifluoromethyl-benzoyl}-guanidine]
  IC50: 19 nM

## N=C(N)NC(=O)c1ccc(C2CCN(C(=O)C3CCCN3)CC2)c(C(F)(F)F)c1 (stereo not drawn) [N-{4-[1-(Pyrrolidine-2-carbonyl)-piperidin-4-yl]-3-trifluoromethyl-benzoyl}-guanidine]
  IC50: 11 nM

## N=C(N)NC(=O)c1ccc(C2CCN(C(=O)C3CCNC3)CC2)c(C(F)(F)F)c1 (stereo not drawn) [N-{4-[1-(Pyrrolidine-3-carbonyl)-piperidin-4-yl]-3-trifluoromethyl-benzoyl}-guanidine]
  IC50: 5 nM

## N=C(N)NC(=O)c1ccc(C2CCN(C(=O)c3cnc4ccccc4c3)CC2)c(C(F)(F)F)c1 [N-{4-[1-(Quinoline-3-carbonyl)-piperidin-4-yl]-3-trifluoromethyl-benzoyl}-guanidine]
  IC50: 70 nM

## N=C(N)NC(=O)c1ccc(C2CCN(C(=O)c3cccc4ncccc34)CC2)c(C(F)(F)F)c1 [N-{4-[1-(Quinoline-5-carbonyl)-piperidin-4-yl]-3-trifluoromethyl-benzoyl}-guanidine]
  IC50: 46 nM

## N=C(N)NC(=O)c1ccc(C2CCN(C(=O)c3ccc4ncccc4c3)CC2)c(C(F)(F)F)c1 [N-{4-[1-(Quinoline-6-carbonyl)-piperidin-4-yl]-3-trifluoromethyl-benzoyl}-guanidine]
  IC50: 64 nM

## N=C(N)NC(=O)c1ccc(C2CCN(C(=O)C3CCOCC3)CC2)c(C(F)(F)F)c1 [N-{4-[1-(Tetrahydro-pyran-4-carbonyl)-piperidin-4-yl]-3-trifluoromethyl-benzoyl}-guanidine]
  IC50: 61 nM

## N=C(N)NC(=O)c1ccc(C2CCN(C(=O)c3cscn3)CC2)c(C(F)(F)F)c1 [N-{4-[1-(Thiazole-4-carbonyl)-piperidin-4-yl]-3-trifluoromethyl-benzoyl}-guanidine]
  IC50: 18 nM

## N=C(N)NC(=O)c1ccc(C2CCN(C(=O)c3ccc4cccnc4n3)CC2)c(C(F)(F)F)c1 [N-{4-[1-([1,8]Naphthyridine-2-carbonyl)-piperidin-4-yl]-3-trifluoromethyl-benzoyl}-guanidine]
  IC50: 25 nM

## Cc1cc(C2CCN(C(=O)c3cccc(C(F)(F)F)c3)CC2)c(S(C)(=O)=O)cc1C(=O)NC(=N)N [N-{5-methanesulfonyl-2-methyl-4-[1-(3-trifluoromethyl-benzoyl)-piperidin-4-yl]-benzoyl}-guanidine]
  IC50: 51 nM

## COCC(=O)N1CCC(c2cc(C)c(C(=O)NC(=N)N)cc2S(C)(=O)=O)CC1 [N-{5-methanesulfonyl-4-[1-(2-methoxy-acetyl)-piperidin-4-yl]-2-methyl-benzoyl}-guanidine]
  IC50: 15 nM

## CCC(=O)N1CCC(c2cc(C)c(C(=O)NC(=N)N)cc2S(C)(=O)=O)CC1 [N-{5-methanesulfonyl-4-[1-propionyl-piperidin-4-yl]-2-methyl-benzoyl}-guanidine]
  IC50: 16 nM
